Measured values as given in US20250312323A1 (Cavion, Inc., priority 2018, published 2025).

System: patients with essential tremor
Assay: T-CALM: treatment-emergent adverse events, discontinuations, dosage reductions
Type: in vivo, human
Experimental: T-CALM employed the following dose titration scheme: Week 1 at 4 mg BID (8 mg/day), Week 2 at 8 mg BID (16 mg/day) and Weeks 3 & 4 at 10 mg BID (20 mg/day). […] Adverse Events were coded using MedDRA V20.0. Only treatment emergent adverse events with an onset date and time after the initiation of study drug until 30 days after discontinuation of drug were reported. For subjects who experience the same coded event more than once, a single event was presented. Adverse events were attributed to a study week based on the onset date, i.e. events that started on or after Visit 1 and prior to Visit 2 were classified as Study Week 1.
Adverse events are characterized by maximum severity, drug-related adverse events, serious adverse events and adverse events leading to discontinuation of study.
Safety procedures involved collection of all TEAEs (treatment-emergent adverse events) coded into the Medical Dictionary for Regulatory Activities (MedDRA) version 20. Adverse events were classified by maximum severity, drug-related adverse events, serious adverse events, and adverse events leading to patient discontinuation.

## CC(C)c1ccc(CC(=O)N[C@H](C)c2ccc(OCC(F)(F)F)cn2)cc1 [CX-8998]
Onset in study week 1
  AE Musculoskeletal and Connective Tissue Disorders, number of subjects: 1
  AE Musculoskeletal and Connective Tissue Disorders, percent of subjects: (2%)
  AE Neoplasms, number of subjects: 1
  AE Neoplasms, percent of subjects: (2%)
  AE Psychiatric Disorders, number of subjects: 8
  AE Psychiatric Disorders, percent of subjects: (17%)
  AE Respiratory, Thoracic and Mediastinal Disorders, percent of subjects: (2%)
  AE Skin and Subcutaneous Tissue Disorders, number of subjects: 1
  AE Skin and Subcutaneous Tissue Disorders, percent of subjects: (2%)
  AE Vascular Disorders, number of subjects: 0
Onset in study week 2
  AE Any Event, percent of subjects: (21%)
  AE Central Nervous System Disorders, number of subjects: 4
  AE Central Nervous System Disorders, percent of subjects: (8%)
  AE Ear and Labyrinth Disorders, number of subjects: 0
  AE Eye Disorders, number of subjects: 0
  AE Gastrointestinal Disorders, number of subjects: 1
  AE Gastrointestinal Disorders, percent of subjects: (2%)
  AE Infections and Infestations, number of subjects: 2
  AE Infections and Infestations, percent of subjects: (4%)
  AE Investigations, number of subjects: 1
  AE Investigations, percent of subjects: (2%)
  AE Metabolism and Nutrition Disorders, number of subjects: 0
  AE Musculoskeletal and Connective Tissue Disorders, number of subjects: 1
  AE Musculoskeletal and Connective Tissue Disorders, percent of subjects: (2%)
  AE Neoplasms, number of subjects: 0
  AE Psychiatric Disorders, number of subjects: 2
  AE Psychiatric Disorders, percent of subjects: (4%)
  AE Skin and Subcutaneous Tissue Disorders, number of subjects: 0
  AE Vascular Disorders, number of subjects: 1
  AE Vascular Disorders, percent of subjects: (2%)
Onset in study week 3
  AE Any Event, percent of subjects: (17%)
  AE Central Nervous System Disorders, number of subjects: 1
  AE Central Nervous System Disorders, percent of subjects: (2%)
  AE Ear and Labyrinth Disorders, number of subjects: 0
  AE Eye Disorders, number of subjects: 0
  AE Gastrointestinal Disorders, number of subjects: 1
  AE Gastrointestinal Disorders, percent of subjects: (2%)
  AE Infections and Infestations, number of subjects: 2
  AE Infections and Infestations, percent of subjects: (4%)
  AE Injury, Poisoning and Procedural Complications, percent of subjects: (2%)
  AE Investigations, number of subjects: 1
  AE Investigations, percent of subjects: (2%)
  AE Metabolism and Nutrition Disorders, number of subjects: 1
  AE Metabolism and Nutrition Disorders, percent of subjects: (2%)
  AE Musculoskeletal and Connective Tissue Disorders, number of subjects: 1
  AE Musculoskeletal and Connective Tissue Disorders, percent of subjects: (2%)
  AE Neoplasms, number of subjects: 0
  AE Psychiatric Disorders, number of subjects: 3
  AE Psychiatric Disorders, percent of subjects: (6%)
  AE Respiratory, Thoracic and Mediastinal Disorders, percent of subjects: (2%)
  AE Skin and Subcutaneous Tissue Disorders, number of subjects: 0
  AE Vascular Disorders, number of subjects: 0
Onset in study week 4
  AE Any Event, percent of subjects: (4%)
  AE Central Nervous System Disorders, number of subjects: 0
  AE Ear and Labyrinth Disorders, number of subjects: 0
  AE Eye Disorders, number of subjects: 0
  AE Gastrointestinal Disorders, number of subjects: 0
  AE Infections and Infestations, number of subjects: 0
  AE Investigations, number of subjects: 1
  AE Investigations, percent of subjects: (2%)
  AE Metabolism and Nutrition Disorders, number of subjects: 1
  AE Metabolism and Nutrition Disorders, percent of subjects: (2%)
  AE Musculoskeletal and Connective Tissue Disorders, number of subjects: 0
  AE Neoplasms, number of subjects: 0
  AE Psychiatric Disorders, number of subjects: 2
  AE Psychiatric Disorders, percent of subjects: (4%)
  AE Skin and Subcutaneous Tissue Disorders, number of subjects: 0
  AE Vascular Disorders, number of subjects: 0
Onset in study week >4
  AE Any Event, percent of subjects: (2%)
  AE Central Nervous System Disorders, number of subjects: 1
  AE Central Nervous System Disorders, percent of subjects: (2%)
  AE Ear and Labyrinth Disorders, number of subjects: 0
  AE Eye Disorders, number of subjects: 0
  AE Gastrointestinal Disorders, number of subjects: 0
  AE Infections and Infestations, number of subjects: 0
  AE Investigations, number of subjects: 0
  AE Metabolism and Nutrition Disorders, number of subjects: 0
  AE Musculoskeletal and Connective Tissue Disorders, number of subjects: 0
  AE Neoplasms, number of subjects: 0
  AE Psychiatric Disorders, number of subjects: 0
  AE Skin and Subcutaneous Tissue Disorders, number of subjects: 0
  AE Vascular Disorders, number of subjects: 0
